The source of these data is patent publication US9505762B2, “Purine derivatives as CB2 receptor agonists” (Hoffmann-La Roche Inc., priority 2013, dated 2016).

Assay [1] concerns the target human CB2 receptors (Homo sapiens (Human), UniProt P34972). Briefly: functional cAMP assay, CB2. Format: cell-based. The settings on record: CHO cells expressing human CB2. The procedure: (§1) The growth medium was exchanged with Krebs Ringer Bicarbonate buffer with 1 mM IBMX and incubated at 30° C. for 30 min. Compounds were added to a final assay volume of 100 μl and incubated for 30 min at 30° C. Using the cAMP-Nano-TRF detection kit the assay (Roche Diagnostics) was stopped by the addition of 50 μl lysis reagent (Tris, NaCl, 1.5% Triton X100, 2.5% NP40, 10% NaN3) and 50 μl detection solutions (20 μM mAb Alexa700-cAMP 1:1, and 48 μM Ruthenium-2-AHA-cAMP) and shaken for 2 h at room temperature. The time-resolved energy transfer is measured by a TRF reader (Evotec Technologies GmbH), equipped with a ND:YAG laser as excitation source. The plate is measured twice with the excitation at 355 nm and at the emission with a delay of 100 ns and a gate of 100 ns, total exposure time 10 s at 730 (bandwidth 30 nm) or 645 nm (bandwidth 75 nm), respectively.
(§2) EC50 values were determined using Activity Base analysis (ID Business Solution, Limited).
On the technique in general: cAMP levels reflect the balance of adenylyl cyclase and phosphodiesterase activity.

Assay [2] addresses human CB1 receptors (Homo sapiens (Human), UniProt P21554). Briefly: functional cAMP assay, CB1. Conditions: CHO cells expressing human CB1. The assay is classed as cell-based. The method, then: as §1, §2

Chain of human CB2 receptors (P34972 whole entry): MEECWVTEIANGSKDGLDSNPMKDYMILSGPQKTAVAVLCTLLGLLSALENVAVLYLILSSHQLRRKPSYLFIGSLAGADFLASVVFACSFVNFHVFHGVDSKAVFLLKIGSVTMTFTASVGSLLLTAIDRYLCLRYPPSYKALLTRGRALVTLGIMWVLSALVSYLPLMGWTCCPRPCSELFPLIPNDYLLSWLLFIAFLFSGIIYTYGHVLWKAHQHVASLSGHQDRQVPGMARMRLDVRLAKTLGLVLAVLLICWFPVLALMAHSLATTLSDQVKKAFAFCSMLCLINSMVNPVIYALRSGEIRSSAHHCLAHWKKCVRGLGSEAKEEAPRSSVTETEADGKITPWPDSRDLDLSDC
Chain of human CB1 receptors (P21554 whole entry): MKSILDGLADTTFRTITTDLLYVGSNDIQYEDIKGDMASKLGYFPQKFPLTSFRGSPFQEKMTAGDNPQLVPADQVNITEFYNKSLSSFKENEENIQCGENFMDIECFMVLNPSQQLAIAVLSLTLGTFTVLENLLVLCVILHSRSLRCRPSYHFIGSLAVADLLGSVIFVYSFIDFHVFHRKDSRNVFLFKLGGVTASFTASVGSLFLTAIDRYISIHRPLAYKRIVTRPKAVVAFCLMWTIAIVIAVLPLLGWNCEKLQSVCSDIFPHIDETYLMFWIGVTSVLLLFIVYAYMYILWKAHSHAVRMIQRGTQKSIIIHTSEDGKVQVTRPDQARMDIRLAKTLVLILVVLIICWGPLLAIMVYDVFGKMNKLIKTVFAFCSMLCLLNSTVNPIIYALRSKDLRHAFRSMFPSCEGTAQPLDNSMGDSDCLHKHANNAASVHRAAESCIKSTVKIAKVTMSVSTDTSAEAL

By EC50 is commonly meant the concentration needed to bring the measured effect to its halfway point. Read a high EC50 as lower potency in that assay. For the compound `CC(C)(C)c1nc(N2CCC(O)C2)c2ncn(CCc3ccccc3)c2n1` (centres unmarked) [Example 38, 1-[2-tert-butyl-9-(2-phenylethyl)purin-6-yl]pyrrolidin-3-ol], the EC50 in assay [1] was 20.3 nM; in assay [2] it was more than 10000 nM.
`CC(C)(C)c1nc(N2CCC3(COC3)C2)c2ncn(Cc3ccc(Cl)cc3)c2n1` [Example 58, 7-[2-tert-butyl-9-[(4-chlorophenyl)methyl]purin-6-yl]-2-oxa-7-azaspiro[3.4]octane]: the EC50 is 506 nM in assay [1] and more than 10000 nM in assay [2].
`CC(C)(C)Nc1nc(N2CC[C@H](O)C2)c2ncn(CCC(F)(F)F)c2n1` [Example 130, (3S)-1-[2-(tert-butylamino)-9-(3,3,3-trifluoropropyl)purin-6-yl]pyrrolidin-3-ol]: the EC50 in assay [1] was 215 nM; in assay [2] it was more than 10000 nM.
For `CC(C)(C)c1nc(N2CCC(F)(F)C2)c2ncn(Cc3ccc(Cl)cc3)c2n1` [Example 1, 2-Tert-Butyl-9-[(4-Chlorophenyl)Methyl]-6-(3,3-Difluoropyrrolidin-1-Yl)Purine], in that order: 11.6 nM and more than 10000 nM.
For `CC(C)(C)c1nc(N2CC(O)(C(F)(F)F)C2)c2ncn(Cc3ncccc3Cl)c2n1` [Example 167, 1-[2-tert-butyl-9-[(3-chloropyridin-2-yl)methyl]purin-6-yl]-3-(trifluoromethyl)azetidin-3-ol], in that order: 35 nM and more than 10000 nM.
For `Cc1nonc1Cn1cnc2c(N3CCC4(COC4)C3)nc(C(C)(C)C)nc21` [Example 62, 7-[2-tert-butyl-9-[(4-methyl-1,2,5-oxadiazol-3-yl)methyl]purin-6-yl]-2-oxa-7-azaspiro[3.4]octane], in that order: 146 nM and more than 10000 nM.
Turning to `CC(C)(C)c1nc(N2CCC(F)(F)C2)c2ncn(CC(=O)c3ccccc3Cl)c2n1` [Example 17, 2-[2-tert-butyl-6-(3,3-difluoropyrrolidin-1-yl)purin-9-yl]-1-(2-chlorophenyl)ethanone], the results for the EC50 in assay [1] and in assay [2] were 3.5 nM and more than 10000 nM, respectively.
For `CC(C)(C)COc1nc(N2CCC(C)(O)C2)c2ncn(Cc3ncccc3Cl)c2n1` (centres unmarked) [Example 134, 1-[9-[(3-chloropyridin-2-yl)methyl]-2-(2,2-dimethylpropoxy)purin-6-yl]-3-methylpyrrolidin-3-ol], in that order: 178 nM and more than 10000 nM.
With `CC(C)(C)c1nc(N2CCC(O)C2)c2ncn(Cc3ccccc3S(C)(=O)=O)c2n1` (centres unmarked) [Example 34, 1-[2-tert-butyl-9-[(2-methylsulfonylphenyl)methyl]purin-6-yl]pyrrolidin-3-ol], the EC50 in assay [1] is 9 nM; in assay [2], more than 10000 nM.
As for `CC(C)(C)c1nc(N2CC[C@H](O)C2)c2ncn(Cc3ccccc3S(C)(=O)=O)c2n1` [Example 90, (3S)-1-[2-tert-butyl-9-[(2-methylsulfonylphenyl)methyl]purin-6-yl]pyrrolidin-3-ol], the results for the EC50 in assay [1] and in assay [2] were 7.9 nM and more than 10000 nM, respectively.
Consider `CC(=O)N[C@H]1CCN(c2nc(C(C)(C)C)nc3c2ncn3Cc2n[nH]cc2C(F)(F)F)C1` [Example 77, N—[(S)-1-[2-tert-butyl-9-[[4-(trifluoromethyl)-1H-pyrazol-3-yl]methyl]purin-6-yl]pyrrolidin-3-yl]acetamide], for which the EC50 was 205 nM in assay [1] and more than 10000 nM in assay [2].
For the compound `CC(C)(C)c1nc(N2CC[C@H](O)C2)c2ncn(CCC(F)(F)F)c2n1` [Example 99, (3S)-1-[2-tert-butyl-9-(3,3,3-trifluoropropyl)purin-6-yl]pyrrolidin-3-ol], the EC50 in assay [1] is 228 nM; in assay [2], more than 10000 nM.
In the case of `CC(C)(C)c1nc(N2CCC(F)(F)C2)c2ncn(CC3CCCCC3)c2n1` [Example 8, 2-tert-butyl-9-(cyclohexylmethyl)-6-(3,3-difluoropyrrolidin-1-yl)purine], the EC50 in assay [1] is 75.3 nM; in assay [2] it was more than 10000 nM.
Take `CC(C)(C)c1nc(N2CC[C@H](O)C2)c2ncn(Cc3ncccc3Cl)c2n1` [Example 92, (3S)-1-[2-tert-butyl-9-[(3-chloropyridin-2-yl)methyl]purin-6-yl]pyrrolidin-3-ol]: the results for the half-maximal effective concentration (EC50) in assay [1] and in assay [2] were 8.4 nM and more than 10000 nM, respectively.
On to `CC(C)(C)c1nc(N2CC(F)(F)C(F)(F)C2)c2ncn(Cc3ccccc3C(F)(F)F)c2n1` [Example 105, 2-tert-butyl-6-(3,3,4,4-tetrafluoropyrrolidin-1-yl)-9-[[2-(trifluoromethyl)phenyl]methyl]purine], for which the EC50 in assay [1] was 8.9 nM; in assay [2], more than 10000 nM.
For `CCn1cnc2c(N3CCC(F)(F)C3)nc(C(C)(C)C)nc21` [Example 9, 2-tert-butyl-6-(3,3-difluoropyrrolidin-1-yl)-9-ethylpurine], in that order: 48.8 nM and more than 10000 nM.
For `Cc1nnc(Cn2cnc3c(N4CCC(F)(F)C4)nc(C(C)(C)C)nc32)o1` [Example 11, 2-[[2-tert-butyl-6-(3,3-difluoropyrrolidin-1-yl)purin-9-yl]methyl]-5-methyl-1,3,4-oxadiazole], in that order: 61.7 nM and more than 10000 nM.
For `Cn1nnnc1Cn1cnc2c(N3CC[C@H](O)C3)nc(C(C)(C)C)nc21` [Example 95, (3S)-1-[2-tert-butyl-9-[(1-methyltetrazol-5-yl)methyl]purin-6-yl]pyrrolidin-3-ol], in that order: 363 nM and more than 10000 nM.
As to `CC(C)(C)Nc1nc(N2CC3(COC3)C2)c2ncn(CCC(F)(F)F)c2n1` [Example 142, N-tert-butyl-6-(2-oxa-6-azaspiro[3.3]heptan-6-yl)-9-(3,3,3-trifluoropropyl)purin-2-amine], the EC50 is 681 nM in assay [1] and more than 10000 nM in assay [2].
For `CC(C)(C)c1nc(N2CCC(F)(F)C2)c2ncn(Cc3nnnn3C3CC3)c2n1` [Example 156, 2-tert-butyl-9-[(1-cyclopropyltetrazol-5-yl)methyl]-6-(3,3-difluoropyrrolidin-1-yl)purine], in that order: 9.1 nM and more than 10000 nM.
Turning to `Cn1nnnc1Cn1cnc2c(N3CCC(F)(F)C3)nc(C(C)(C)C)nc21` [Example 14, 2-tert-butyl-6-(3,3-difluoropyrrolidin-1-yl)-9-[(1-methyltetrazol-5-yl)methyl]purine], the half-maximal effective concentration (EC50) was 23 nM in assay [1] and more than 10000 nM in assay [2].
Consider `COCCn1cnc2c(N3CCC(O)C3)nc(C(C)(C)C)nc21` (centres unmarked) [Example 37, 1-[2-tert-butyl-9-(2-methoxyethyl)purin-6-yl]pyrrolidin-3-ol], for which the values for the EC50 in assay [1] and in assay [2] were 274 nM and more than 10000 nM, respectively.
Turning to `CC(=O)N[C@H]1CCN(c2nc(C(C)(C)C)nc3c2ncn3Cc2ccc(Cl)cc2)C1` [Example 50, N—[(S)-1-[2-tert-butyl-9-[(4-chlorophenyl)methyl]purin-6-yl]pyrrolidin-3-yl]acetamide], the EC50 was 534 nM in assay [1] and more than 10000 nM in assay [2].
For `CC1(O)CCN(c2nc(NC(C)(C)C)nc3c2ncn3Cc2ccccc2Cl)C1` (centres unmarked) [Example 120, 1-[2-(tert-butylamino)-9-[(2-chlorophenyl)methyl]purin-6-yl]-3-methylpyrrolidin-3-ol], in that order: 108 nM and more than 10000 nM.
Regarding `CC(=O)N[C@H]1CCN(c2nc(C(C)(C)C)nc3c2ncn3Cc2cccc(Cl)c2)C1` [Example 49, N—[(S)-1-[2-tert-butyl-9-[(3-chlorophenyl)methyl]purin-6-yl]pyrrolidin-3-yl]acetamide], the EC50 in assay [1] is 311 nM; in assay [2], more than 10000 nM.
For `Cc1nonc1Cn1cnc2c(N3CCSC3)nc(C(C)(C)C)nc21` [Example 150, 3-[[2-tert-butyl-6-(1,3-thiazolidin-3-yl)purin-9-yl]methyl]-4-methyl-1,2,5-oxadiazole], in that order: 10.5 nM and more than 10000 nM.
For `CC(C)(C)c1nc(N2CCC(O)C2)c2ncn(Cc3c[nH]nc3C(F)(F)F)c2n1` (centres unmarked) [Example 44, 1-[2-tert-butyl-9-[[3-(trifluoromethyl)-1H-pyrazol-4-yl]methyl]purin-6-yl]pyrrolidin-3-ol], in that order: 14.8 nM and more than 10000 nM.
Regarding `CC1(O)CCN(c2nc(NC(C)(C)C)nc3c2ncn3Cc2c[nH]nc2C(F)(F)F)C1` (centres unmarked) [Example 136, 1-[2-(tert-butylamino)-9-[[3-(trifluoromethyl)-1H-pyrazol-4-yl]methyl]purin-6-yl]-3-methylpyrrolidin-3-ol], the figures for the EC50 in assay [1] and in assay [2] were 150 nM and more than 10000 nM, respectively.
For `CC1(O)CCN(c2nc(C(C)(C)C)nc3c2ncn3Cc2c[nH]nc2C(F)(F)F)C1` (centres unmarked) [Example 84, 1-[2-tert-butyl-9-[[3-(trifluoromethyl)-1H-pyrazol-4-yl]methyl]purin-6-yl]-3-methylpyrrolidin-3-ol], in that order: 79.3 nM and more than 10000 nM.
Take `Cn1nnnc1Cn1cnc2c(N3CCC(F)(F)C3)nc(NC(C)(C)C)nc21` [Example 113, N-tert-butyl-6-(3,3-difluoropyrrolidin-1-yl)-9-[(1-methyltetrazol-5-yl)methyl]purin-2-amine]: the EC50 in assay [1] is 249 nM; in assay [2], more than 10000 nM.
For `CCCn1nnnc1Cn1cnc2c(N3CC[C@H](O)C3)nc(C(C)(C)C)nc21` [Example 158, (3S)-1-[2-tert-butyl-9-[(1-propyltetrazol-5-yl)methyl]purin-6-yl]pyrrolidin-3-ol], in that order: 61.6 nM and more than 10000 nM.
